According to patent US6670391B2, “Benzopyran derivative and antiallergic agent” (Dainippon Ink and Chemicals, Inc., priority 2001, dated 2003):
Where two headings read alike, the source gives them in different places.

Tested on: male Hartley guinea pigs actively sensitized with egg-white albumin
Test: Antiallergic Test due to Antigen-Induced Immediate Type Airway Reaction and Delayed Type Airway Reaction
Type: in vivo
Conditions: Cavia porcellus, po, 10 mg/kg orally once one hour before induction (prednisolone 10 mg/kg orally twice, 16 hours and 2 hours before)
Procedure: Using an ultrasonic nebulizer (NE-U12, manufactured by OMRON Corporation), male Hartley guinea pigs (aged six weeks) were actively sensitized by consecutive 8-day inhalation of a 1 wt % physiological saline of egg-white albumin for 10 minutes a day. After one week passed since the final sensitization, an asthmatic disease state was induced by inhalation of a 2 wt % physiological saline of egg-white albumin for 5 minutes in the same manner. To inhibit the synthesis of endogenous steroid, metyrapone (10 mg/kg) was intravenously administered at 24 hours and one hour before the induction. To inhibit anaphylactic shock, pyrilamine (10 mg/kg) was intraperitoneally administered 30 minutes before inducing the asthmatic reaction.
After inducing the asthmatic reaction, the airway resistance (specific airway resistance Raw) was measured for 1 minute before inducing the asthmatic reaction, and 1 minute, 2 hours, 4 hours, 5 hours, 6 hours, 7 hours, 8 hours, and 23-24 hours after inducing the asthmatic reaction, using an airway resistance measuring apparatus (Pulmos-I, manufactured by M.I.P.S.). An average value of the airway resistance was determined, and an airway resistance increase ratio with respect to the value of the airway resistance before the induction was calculated by the following Equation 1.
Each of the test substances (10 mg/kg) listed in Table 1 was suspended in an aqueous 0.5% methyl cellulose solution, and the suspension was orally administered once one hour before inducing the asthmatic reaction. A positive control substance (prednisolone) was orally administered twice at a dosage of 10 mg/kg 16 hours and 2 hours before inducing the asthmatic reaction. The test was carried out on 8 animals per group.
According to this test procedure, a two-phase increase in airway resistance was observed immediately after inducing the asthmatic reaction and after 4-8 hours passed since inducing the asthmatic reaction. In the present invention, the former increase in airway resistance is referred to as the immediate type asthmatic reaction, while the latter increase in airway resistance is referred to as the delayed type asthmatic reaction. With respect to the evaluation of the drug, for the immediate type asthmatic reaction, the inhibition percentage with respect to the asthmatic reaction inhibiting medium administration group (referring to the group wherein a test drug is not administered after inducing the asthmatic reaction, hereinafter merely referred to as the “medium administration group”) was determined by Equation 2 using the airway resistance increase ratio after one minute gas passed since the induction as an index.
For the delayed type asthmatic reaction, the inhibition percentage with respect to the medium administration group was determined by the following Equation 3 using the area under the curve (AUC4-8) of the airway resistance increase ratio up to 4-8 hours after inducing the asthmatic reaction as an index. As an example, the relationship between the airway resistance increase ratio up to 4-8 hours after inducing the asthmatic reaction of the delayed type asthmatic reaction and time in the medium administration group, the prednisolone administration group, and the compound (216) administration group is shown in FIG. 1. As used herein, the area under the curve showing the relationship between the airway resistance increase ratio and time is (AUC4-8)
Airway resistance increase ratio (%)=(airway resistance after inducing the asthmatic airway resistance−airway resistance before inducing the asthmatic reaction)/(airway resistance before inducing the asthmatic reaction)×100
Inhibition (%)=(1−airway resistance increase ratio after one minute has passed since inducing the asthmatic reaction of the test substance administration group/airway resistance increase ratio after one minute has passed since inducing the asthmatic reaction of the medium administration group)×100 […]

[1] = 1 min, airway resistance increase ratio one minute after induction vs medium administration group, read-out: Inhibition (%) against immediate type allergy
[2] = AUC4-8 of airway resistance increase ratio 4-8 hours after induction vs medium administration group, read-out: Inhibition (%) against delayed type allergy

Compound	inhibition in vivo at 10 mg/kg [1] [%]	inhibition in vivo at 10 mg/kg [2] [%]
COc1ccc2c(O)c(O)c(=O)oc2c1 [Comparative Compound (1), 3,4-dihydroxy-7-methoxy-2H-1-benzopyran-2-one, reference compound]	5.7	21.9
CCCCCCCCCCOc1ccc2c(O)c(OC)c(=O)oc2c1 [Comparative Compound (2), 3-methoxy-4-hydroxy-7-decyloxy-2H-1-benzopyran-2-one, reference compound]	6.5	20.2
CCCCCCCCCCOc1cccc2c(OCCCC)c(O)c(=O)oc12 [Comparative Compound (3), 3-hydroxy-4-butoxy-8-decyloxy-2H-1-benzopyran-2-one, reference compound]	5.2	24.3
COc1ccc2c(O)c([C@@H]3O[C@H](CO)[C@@H](O)[C@H](O)[C@H]3O)c(=O)oc2c1 [Comparative Compound (4), 7-methoxy-4-hydroxy-3-(β-D-glucopyranosyl)-2H-1-benzopyran-2-one, reference compound]	4.7	20.5
CCCCOc1ccc2c([C@@H]3O[C@H](CO)[C@@H](O)[C@H](O)[C@H]3O)c(O)c(=O)oc2c1 [Comparative Compound (5), 7-butoxy-3-hydroxy-4-(β-D-glucopyranosyl)-2H-1-benzopyran-2-one, reference compound]	6.8	22.4
CCCCCCOc1c(O)c(=O)oc2cc([C@@H]3O[C@H](CO)[C@@H](O)[C@H](O)[C@H]3O)ccc12 [Comparative Compound (6), 3-hydroxy-4-hexyloxy-7-(β-D-glucopyranosyl)-2H-1-benzopyran-2-one, reference compound]	5.9	24.1
CCCCCCOc1c(O)c2c(OCCO)cccc2oc1=O [Compound (8), 3-hexyloxy-4-hydroxy-5-(2-hydroxyethoxy)-2H-1-benzopyran-2-one]	14.1	58.2
CCCCCCCCOc1c(O)c2c(OCCO)cccc2oc1=O [Compound (14), 3-octyloxy-4-hydroxy-5-(2-hydroxyethoxy)-2H-1-benzopyran-2-one]	32.4	65.5
CCCCCCOc1c(O)c2c(OCCCO)cccc2oc1=O [Compound (29), 3-hexyloxy-4-hydroxy-5-(3-hydroxypropyloxy)-2H-1-benzopyran-2-one]	15.8	60.9
CCCCCCOc1c(O)c2c(OCCC(O)CO)cccc2oc1=O (stereo not drawn) [Compound (53), 3-hexyloxy-4-hydroxy-5-(3,4-dihydroxybutoxy)-2H-1-benzopyran-2-one]	19.3	59.8
CCCCCCOc1c(O)c2c(OCC(=O)O)cccc2oc1=O [Compound (65), 3-hexyloxy-4-hydroxy-5-hydroxycarbonylmethoxy-2H-1-benzopyran-2-one]	21.5	60.2
CC(C)=CCC/C(C)=C/COc1c(O)c2c(OCC(=O)O)cccc2oc1=O [Compound (81), 3-geranyloxy-4-hydroxy-5-hydroxycarbonylmethoxy-2H-1-benzopyran-2-one]	15.4	54.1
CCCCCCOc1c(O)c2c(OCCCCC(=O)O)cccc2oc1=O [Compound (99), 3-hexyloxy-4-hydroxy-5-(4-hydroxycarbonylbutoxy)-2H-1-benzopyran-2-one]	14.6	61.9
CCCCCCOc1c(O)c2cc(OCCO)ccc2oc1=O [Compound (109), 3-hexyloxy-4-hydroxy-6-(2-hydroxyethoxy)-2H-1-benzopyran-2-one]	14	66.8
CCCCCCCCOc1c(O)c2cc(OCCO)ccc2oc1=O [Compound (115), 3-octyloxy-4-hydroxy-6-(2-hydroxyethoxy)-2H-1-benzopyran-2-one]	31.8	61.7
CCOc1c(O)c2cc(OCCCCO)ccc2oc1=O [Compound (137), 3-ethoxy-4-hydroxy-6-(4-hydroxybutoxy)-2H-1-benzopyran-2-one]	8.3	58.9
CCCCCCOc1c(O)c2cc(OCC(O)CO)ccc2oc1=O (stereo not drawn) [Compound (147), 3-hexyloxy-4-hydroxy-6-(2,3-dihydroxypropyloxy)-2H-1-benzopyran-2-one]	19.1	59.5
CCCCCCOc1c(O)c2cc(OCC(=O)O)ccc2oc1=O [Compound (166), 3-hexyloxy-4-hydroxy-6-hydroxycarbonylmethoxy-2H-1-benzopyran-2-one]	23.5	64.1
CCCCCCC=COc1c(O)c2cc(OCCCCC(=O)O)ccc2oc1=O [Compound (202), 3-(1-octenyloxy)-4-hydroxy-6-(4-hydroxycarbonylbutoxy)-2H-1-benzopyran-2-one]	19.9	57.8
CCCCOc1c(O)c2ccc(OCCO)cc2oc1=O [Compound (207), 3-butoxy-4-hydroxy-7-(2-hydroxyethoxy)-2H-1-benzopyran-2-one]	8.5	71.7
CCCCCCOc1c(O)c2ccc(OCCO)cc2oc1=O [Compound (210), 3-hexyloxy-4-hydroxy-7-(2-hydroxyethoxy)-2H-1-benzopyran-2-one]	14.2	71.4
CCCCCCCCOc1c(O)c2ccc(OCCO)cc2oc1=O [Compound (216), 3-octyloxy-4-hydroxy-7-(2-hydroxyethoxy)-2H-1-benzopyran-2-one]	38.8	72.5
CC(C)=CCC/C(C)=C/COc1c(O)c2ccc(OCCO)cc2oc1=O [Compound (226), 3-geranyloxy-4-hydroxy-7-(2-hydroxyethoxy)-2H-1-benzopyran-2-one]	22.8	61.5
CCCCCCCCOc1c(O)c2ccc(OCC(O)CO)cc2oc1=O (stereo not drawn) [Compound (249), 3-octyloxy-4-hydroxy-7-(2,3-dihydroxypropyloxy)-2H-1-benzopyran-2-one]	28.8	63.4
CCCCCCOc1c(O)c2ccc(OCC(=O)O)cc2oc1=O [Compound (267), 3-hexyloxy-4-hydroxy-7-hydroxycarbonylmethoxy-2H-1-benzopyran-2-one]	14	62.2
CCCCCCCCOc1c(O)c2ccc(OCC(=O)O)cc2oc1=O [Compound (273), 3-octyloxy-4-hydroxy-7-hydroxycarbonylmethoxy-2H-1-benzopyran-2-one]	32.9	64.5
CCCCCCOc1c(O)c2ccc(OCCC(=O)O)cc2oc1=O [Compound (288), 3-hexyloxy-4-hydroxy-7-(2-hydroxycarbonylethoxy)-2H-1-benzopyran-2-one]	13.4	59.1
CCCCCCOc1c(O)c2cccc(OCCO)c2oc1=O [Compound (311), 3-hexyloxy-4-hydroxy-8-(2-hydroxyethoxy)-2H-1-benzopyran-2-one]	11.9	55.4
CCCCCCOc1c(O)c2cccc(OCC(O)CO)c2oc1=O (stereo not drawn) [Compound (349), 3-hexyloxy-4-hydroxy-8-(2,3-dihydroxypropyloxy)-2H-1-benzopyran-2-one]	12.5	57.2
CCCCCCOc1c(O)c2cccc(OCC(=O)O)c2oc1=O [Compound (368), 3-hexyloxy-4-hydroxy-8-hydroxycarbonylmethoxy-2H-1-benzopyran-2-one]	24.8	60
